Experiments:
[1] = tested on: FOXO4; test: FOXO4 knockdown by short hairpins: FOXO4 mRNA (QPCR) and punctate FOXO4 staining; assay type: cell-based, human; settings: HCA2 fibroblasts, 8 days after 10Gy XRAY
From the text: FIG. 2. Knockdown of FOXO4 results in apoptosis rather than senescence in DNA-damaged IMR90 fibroblasts. A) Reduction in punctate FOXO4 staining and FOXO4 mRNA expression after 8 days 10Gy XRAY in HCA2 fibroblasts infected […] hairpins targeted at FOXO4. […] B) Increased cytoplasmic Cytochrome C staining (a marker of apoptosis; arrowheads) in DNA-damaged IMR90 cells infected with knockdown against FOXO4. The percentage apoptotic cells is quantified. C) Increased TUNEL staining (a second marker of apoptosis) in similar conditions a B.
FIG. 2A: HCA2 fibroblasts were infected with lentiviral particles containing a control shRNA-encoding vector targeted against a mature sequence in GFP (based on vector PLK0.1, Open Biosystems): 5′-[…]-3′ or two independent sequences in (human) FOXO4, shFOXO4-1: 5′-[…]-3′ and shFOXO4-2: 5′-[…]-3′. Following selection for two days in 0.5 μg/ml Puromycin cells were plated and processed as in FIG. 1 to determine FOXO4 mRNA expression and FOXO4 localization by immunofluorescence. FIG. 2B: IMR90 fibroblasts were infected and treated as in A). Following selection 2×10^5 cells were plated on coverslips and irradiated the next day. […] The percentage of cells with released Cytochrome C staining (translocated from punctual mitochondrial staining to diffuse or absent staining) was determined for 100 cells per condition. […]

[2] = tested on: MCF7 mammary carcinoma cells; test: Cytochrome C release in MCF7 cells with FOXO4 knockdown treated with 5'-fluoro-uracil; assay type: cell-based, human; settings: 5 μM, 40 h
Method: FIG. 11. Sensitization of melanoma cells other types of cancer to additional types of chemotherapy. A) A375 melanoma cells were incubated with the FOXO4-p53 blocking peptide mix in the presence or absence of 2 μM Cisplatin and after 4 days cellular morphology was visualized. […] B) MCF7 mammary carcinoma cells were infected with the short hairpins against FOXO4 and after puromycin selection treated with 5 μM 5′-fluoro-uracil. 40 h later the percentage Cytochrome C-release was scored. The immunofluorescence panels show staining of Cytochrome C. The top, middle and bottom left panels all show mitochondrial Cytochrome C staining. […] C) B16F10Luc mouse melanoma cells were infected with a mouse-specific short hairpin against FOXO4 and short hairpin #2 against human FOXO4 from FIG. 2 which shares sequence homology with mouse FOXO4. After puromycin selection cells were incubated with 10 μM Cisplatin and after 7 days cellular viability was determined by CellTiter 96® AQueous One Solution Cell Proliferation Assay (MTS).
FIG. 11A: 2×10^5 A375 melanoma cells were plated in 24-well plate chambers. The next day the cells were incubated with 50 μM DBD2-peptide or a mixture of 25 μM DBD2-peptide and 25 μM C-term peptide in the presence or absence of 2 μM Cisplatin. […]

[3] = tested on: A375 melanoma cells; test: Surviving fraction (MTS) of A375-shGFP versus A375-shFOXO4 cells treated with chemotherapeutic agents; assay type: cell-based, human
Method: FIG. 12. FOXO4 inhibition on sensitizes A375 melanoma cells to inhibitors of the BRAF/MEK pathway. A) A375 cells stably infected with a control shRNA (shGFP) or an shRNA against FOXO4 (shFOXO4) were treated with the indicated concentrations of the BRAF^V600E-inhibitor PLX4032 and the percentage of the surviving fraction on was determined by Aqueous CellQuant assay either after day 6 (left panel) or day 11 (right panel). Note that for the right panel the cells were refreshed at day 7 with the exact same concentration on of PLX4032. B) Similar experiment as in A), except with the general RAF inhibitor RAF265. C) Similar experiment as in A), except with the MEK inhibitor AZD6244.
FIG. 12A: 2×10^4 A375-shGFP or A375-shFOXO4-2 cells were plated in triplicate in 96-well plate chambers. The next day the cells were incubated with the indicated concentrations of PLX4032 or left untreated. After 6 days the a CellTiter 96® AQueous One Solution Cell Proliferation Assay (MTS) was performed according to the manufacturer's instructions (Promega) to determine the relative number of cells versus Mock treated A375-shGFP or A375-shFOXO4-2 melanoma cells (Left panel). Additionally, in a separate experiment the cells were refreshed at day 7 with the same dose of PLX4032 and left for another 4 days after which the same procedure was performed. […]

[4] = tested on: JNK1/2; settings: in vitro and in cultured cells; literature; cited from earlier work

Compound: 5′-CGTCCACGAAGCAGTTCAAAT-3′ [shFOXO4-2]
- knockdown of FOXO4 mRNA and punctate FOXO4 staining [1]: induce knockdown of FOXO4 mRNA and reduction in punctate FOXO4

Compound: O=c1[nH]cc(F)c(=O)[nH]1 [5-fluorouracyl]
- sensitization of MCF7 cells by FOXO4 knockdown (Cytochrome C release) [2]: sensitized

Compound: Cn1c(Nc2ccc(C(F)(F)F)cc2)nc2cc(Oc3ccnc(-c4ncc(C(F)(F)F)[nH]4)c3)ccc21 [RAF265]
- sensitivity of A375-shFOXO4 versus A375-shGFP melanoma cells [3]: more sensitive

Compound: dDdQdSdRdPdVdQdPdFdLdQdLdTdTdPdRdKdPdRdPdPdRdRdRdQdRdRdKdKdRG [D-JNK1]
- inhibition of JNK1/2 kinase activity [4]: selectively blocks access to its substrates

Compound: 5′-CCAGCTTCAGTCAGCAGTTAT-3′ [shFOXO4-1]
- knockdown of FOXO4 mRNA and punctate FOXO4 staining [1]: induce knockdown of FOXO4 mRNA and reduction in punctate FOXO4

Compound: N.N.[Cl][Pt][Cl] [Cisplatin]
- sensitivity of A375-shFOXO4 versus A375-shGFP melanoma cells [3]: more sensitive

Reference: patent US20130288981A1, “TARGETING SENESCENT CELLS AND CANCER CELLS BY INTERFERENCE WITH JNK AND/OR FOXO4” (Buck Institute for Research on Aging, priority 2012, published 2013)
